These results are taken from US11142515B2, “Pyrazolyl-ureas as kinase inhibitors” (RESPIVERT LIMITED, priority 2014, dated 2021).

A word on the IC50: it is the concentration that gives 50% inhibition.

Structures are written as SMILES.

Series [1] has as its system TNFα release in d-U937 cells. As to the kind of experiment: LPS-induced TNFα release in d-U937 cells. Note: relative to 10 µg/mL BIRB-796. The class given is cell-based. Conditions: Homo sapiens, dU937; read-out: LPS Induced Release TNFα REC50 (dU937). On the procedure:
(§1) U937 cells, a human monocytic cell line, were differentiated into macrophage-type cells by incubation with PMA (100-200 ng/mL) for 48 to 72 h. Cells were pre-incubated with final […] concentrations of test compound for 2 h and were then stimulated with LPS (0.1 μg/mL; from E. coli: O111:B4, Sigma) for 4 h. The supernatant was collected for determination of TNFα and IL-8 concentrations by sandwich ELISA (Duo-set, R&D systems). […] The relative 50% effective concentration (REC50) was determined from the resultant concentration-response curve. The inhibition of IL-8 production was calculated at each concentration of test compound by comparison with vehicle control.

Series [2] has as its target T1, p38 MAPKα isoform (MAPK14) (Homo sapiens, UniProt Q16539).
T1 construct: purchased Life Technologies
Put plainly: p38 MAPKα enzyme inhibition (Z-LYTE FRET). Particulars: Table 2A; read-out: IC50 Values for Enzyme Inhibition p38 MAPKα. The class given is biochemical. Put shortly:
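Recombinant human MAPK14 (40 ng/mL stock) was preincubated 2 h at RT with compound (stock dilutions 0.0012-40 μg/mL). The Z-LYTE FRET read-out used a MAPKAP-K2-derived peptide, and protease development for 1 h cleaved only non-phosphorylated peptide. Phosphorylation was calculated from the coumarin/fluorescein emission ratio.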

A further series deals with d-U937 cells. As to the kind of experiment: Cell viability: MTT assay in differentiated U937 cells. Particulars: 10 μg/mL. The class given is cell-based, human. Put shortly:
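Differentiated U937 cells exposed to compound at a final 10 μg/mL, either 4 h in 5% FCS RPMI1640 or 24 h in 10% FCS RPMI1640. MTT added for 1 h, formazan dissolved in DMSO, absorbance read at 550 nm; % viability loss relative to 0.5% DMSO vehicle, with increases shown as negative values.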
Background: Formazan colour is commonly taken as a measure of viable cells.

The target in a further series is T2, c-Src (Homo sapiens, UniProt P12931).
T2 construct: purchased Life Technologies
As to the kind of experiment: c-Src enzyme inhibition (Z-LYTE FRET). The class given is biochemical. Particulars: Table 2A. The procedure: The enzyme inhibitory activities of compounds disclosed herein were determined by FRET using synthetic peptides labelled with both donor and acceptor fluorophores (Z-LYTE, Life Technologies, Paisley, UK).
The relevant enzyme (1000 ng/mL, 1400 ng/mL or 2000 ng/mL respectively, 2.5 μL) was incubated with the test compound (either 40 μg/mL, 12 μg/mL, 4 μg/mL, 1.2 μg/mL, 0.4 μg/mL, 0.12 μg/mL, 0.04 μg/mL, 0.012 μg/mL, 0.004 μg/mL or 0.0012 μg/mL, 2.5 μL each) for 2 h at RT. The FRET peptides (8 μM, 2.5 μL), and appropriate ATP solutions (2.5 μL, 800 μM for c-Src, and 60 μM ATP for HCK and Syk) were then added to the enzyme/compound mixtures and incubated for 1 h at RT. Development reagent (protease, 5 μL) was added for 1 h prior to detection in a fluorescence microplate reader (EnVision, Perkin Elmer).
In all cases, the site-specific protease cleaves non-phosphorylated peptide only and eliminates the FRET signal. Phosphorylation levels of each reaction were calculated using the ratio of coumarin emission (donor) over fluorescein emission (acceptor), for which low ratios indicate high phosphorylation and high ratios indicate low phosphorylation levels.

In another series the target is T3, GSK 3α enzyme isoform (Homo sapiens, UniProt P49840).
T3 construct: purchased Life Technologies
As to the kind of experiment: GSK 3α enzyme inhibition (Z-LYTE FRET). The class given is biochemical. Particulars: Table 2A; read-out: IC50 Values for Enzyme Inhibition GSK3α. The gist of the method:
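Z-LYTE FRET kinase assay: GSK3α protein (500 ng/mL stock) preincubated with compound (0.0012–40 μg/mL stocks) for 2 h at RT. FRET peptide (8 μM stock) and ATP (40 μM stock) added for 1 h at RT, then protease development for 1 h. Phosphorylation taken from the coumarin/fluorescein emission ratio.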

The test system of series [3] is IL-8 release in d-U937 cells. As to the kind of experiment: LPS-induced IL-8 release in d-U937 cells. The class given is cell-based. Conditions: Homo sapiens, dU937, LPS 0.1 μg/mL 4 h. The procedure: as §1
In a further series the target is T4, Syk (Homo sapiens, UniProt P43405).
T4 construct: purchased Life Technologies
Put plainly: Syk enzyme inhibition (Z-LYTE FRET). The class given is biochemical. Particulars: Table 2A. Put shortly:
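Enzyme (1000, 1400 or 2000 ng/mL stocks for c-Src, Hck, Syk respectively) preincubated 2 h at RT with compound (0.0012–40 μg/mL series), then FRET peptide plus ATP (800 μM c-Src; 60 μM Hck, Syk stocks) for 1 h. Protease development 1 h; phosphorylation from coumarin/fluorescein emission ratio.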

T3 sequence (P49840 whole entry, canonical isoform): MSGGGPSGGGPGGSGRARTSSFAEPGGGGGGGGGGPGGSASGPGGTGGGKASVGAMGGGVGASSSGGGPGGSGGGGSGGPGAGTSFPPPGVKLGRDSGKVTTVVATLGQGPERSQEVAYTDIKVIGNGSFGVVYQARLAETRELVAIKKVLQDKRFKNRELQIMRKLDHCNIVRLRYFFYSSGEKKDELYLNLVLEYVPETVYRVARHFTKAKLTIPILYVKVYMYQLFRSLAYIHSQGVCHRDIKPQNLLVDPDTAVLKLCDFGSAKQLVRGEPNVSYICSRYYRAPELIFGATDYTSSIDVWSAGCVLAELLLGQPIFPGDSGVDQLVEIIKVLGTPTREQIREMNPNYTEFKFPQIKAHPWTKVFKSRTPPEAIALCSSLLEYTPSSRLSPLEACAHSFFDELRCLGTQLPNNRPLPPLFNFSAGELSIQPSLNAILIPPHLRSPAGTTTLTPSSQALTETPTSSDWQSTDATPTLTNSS
T2 sequence (P12931 whole entry): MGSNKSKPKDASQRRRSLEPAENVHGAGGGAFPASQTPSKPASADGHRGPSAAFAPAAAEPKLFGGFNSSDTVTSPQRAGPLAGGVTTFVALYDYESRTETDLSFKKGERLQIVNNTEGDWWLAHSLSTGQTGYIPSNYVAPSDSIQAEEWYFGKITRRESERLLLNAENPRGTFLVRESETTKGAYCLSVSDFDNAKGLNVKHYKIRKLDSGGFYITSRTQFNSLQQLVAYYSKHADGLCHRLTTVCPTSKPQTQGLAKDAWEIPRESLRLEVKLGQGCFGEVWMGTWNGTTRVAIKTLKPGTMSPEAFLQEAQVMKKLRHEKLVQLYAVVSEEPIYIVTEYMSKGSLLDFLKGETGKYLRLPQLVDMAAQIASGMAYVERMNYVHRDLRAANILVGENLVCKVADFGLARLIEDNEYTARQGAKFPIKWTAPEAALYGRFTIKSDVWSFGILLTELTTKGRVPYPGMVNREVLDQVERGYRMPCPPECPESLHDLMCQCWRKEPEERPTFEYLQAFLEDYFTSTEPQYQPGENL
T1 sequence (Q16539 whole entry, canonical isoform): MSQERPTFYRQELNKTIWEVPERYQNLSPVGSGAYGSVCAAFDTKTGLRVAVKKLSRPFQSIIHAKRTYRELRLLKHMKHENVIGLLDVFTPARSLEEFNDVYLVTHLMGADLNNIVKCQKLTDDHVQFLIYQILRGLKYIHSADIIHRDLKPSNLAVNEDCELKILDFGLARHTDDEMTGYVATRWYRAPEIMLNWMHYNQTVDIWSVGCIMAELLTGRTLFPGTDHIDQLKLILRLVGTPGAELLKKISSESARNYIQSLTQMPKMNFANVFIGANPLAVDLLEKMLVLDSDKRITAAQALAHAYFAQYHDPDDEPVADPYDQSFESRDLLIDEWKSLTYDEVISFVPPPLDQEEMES

With `Cc1ccc(-n2nc(C(C)(C)C)cc2NC(=O)Nc2ccc(OCc3ccnc(Nc4cnc(C5CC5)cn4)c3)c3ccccc23)cc1` [Example 16], the EC50 in series [1] was 144 nM. Moreover, the IC50 was 87 nM in series [2]; 2520 nM against c-Src; more than 15700 nM at GSK 3α enzyme isoform; 89.6 nM in series [3]; more than 15700 nM at Syk. In addition, in the series on d-U937 cells, the “MTT Assay Cell viability at time point indicated in d-U937 Cells, 4 h” value (shortened to “MTT Assay Cell viability … in d-U937 Cells, 4 h”) is “− (−ve and +ve indicate the value is below and above, respectively, the no significant effect threshold defined as 30% inhibition at 10 μg/mL at the time point indicated)”. Also, the “MTT Assay Cell viability at time point indicated in d-U937 Cells, 24 h” value (shortened to “MTT Assay Cell viability … 24 h”) in the series on d-U937 cells was “− (−ve and +ve indicate the value is below and above, respectively, the no significant effect threshold defined as 30% inhibition at 10 μg/mL at the time point indicated)”.

Take `Cc1ccc(-n2nc(C(C)(C)C)cc2NC(=O)Nc2ccc(OCc3ccnc(Nc4cnc(C(=O)NCCN5CCOCC5)cn4)c3)c3ccccc23)cc1` [Example 17]: the EC50 in series [1] came to 12.7 nM. Also, the concentration for half-maximal inhibition (IC50) in series [2] was 8 nM; at c-Src, 34 nM; on GSK 3α enzyme isoform, 2820 nM; in series [3], 16.5 nM; on Syk, more than 13200 nM. For the same compound, the “MTT Assay Cell viability … in d-U937 Cells, 4 h” value in the series with d-U937 cells is “− (−ve and +ve indicate the value is below and above, respectively, the no significant effect threshold defined as 30% inhibition at 10 μg/mL at the time point indicated)”. In addition, the “MTT Assay Cell viability … 24 h” value with d-U937 cells was “− (−ve and +ve indicate the value is below and above, respectively, the no significant effect threshold defined as 30% inhibition at 10 μg/mL at the time point indicated)”.

For the compound `COc1cncc(Nc2cc(COc3ccc(NC(=O)Nc4cc(C(C)(C)C)nn4-c4ccc(C)cc4)c4ccccc34)ccn2)n1` [Example 18], in series [1], the EC50 was 2.6 nM. The IC50 in series [2] is 13 nM; against c-Src, 196 nM; on GSK 3α enzyme isoform, 9170 nM; in series [3], 2.1 nM; against Syk, more than 15900 nM. In the series with d-U937 cells, the “MTT Assay Cell viability … in d-U937 Cells, 4 h” value was “− (−ve and +ve indicate the value is below and above, respectively, the no significant effect threshold defined as 30% inhibition at 10 μg/mL at the time point indicated)”. In the series on d-U937 cells, the “MTT Assay Cell viability … 24 h” value was “+ (−ve and +ve indicate the value is below and above, respectively, the no significant effect threshold defined as 30% inhibition at 10 μg/mL at the time point indicated)”.

`Cc1ccc(-n2nc(C(C)(C)C)cc2NC(=O)Nc2ccc(OCc3ccnc(Nc4cnc(C)cn4)c3)c3ccccc23)cc1` [Example 19]: in series [1], the EC50 was found to be 13.2 nM. In addition, the IC50 is 13 nM in series [2]; 151 nM on c-Src; more than 16300 nM at GSK 3α enzyme isoform; 1.4 nM in series [3]; more than 16300 nM on Syk. Also, in the series on d-U937 cells, the “MTT Assay Cell viability … in d-U937 Cells, 4 h” value is “− (−ve and +ve indicate the value is below and above, respectively, the no significant effect threshold defined as 30% inhibition at 10 μg/mL at the time point indicated)”. In addition, the “MTT Assay Cell viability … 24 h” value in the series on d-U937 cells is “− (−ve and +ve indicate the value is below and above, respectively, the no significant effect threshold defined as 30% inhibition at 10 μg/mL at the time point indicated)”.

With `Cc1ccc(-n2nc(C(C)(C)C)cc2NC(=O)Nc2ccc(OCc3ccnc(Nc4cncc(C)n4)c3)c3ccccc23)cc1` [Example 20], the EC50 in series [1] is 1.3 nM. The IC50 is 15 nM in series [2]; 150 nM at c-Src; 9040 nM on GSK 3α enzyme isoform; 1.3 nM in series [3]; more than 16300 nM against Syk. Also, in the series on d-U937 cells, the “MTT Assay Cell viability … in d-U937 Cells, 4 h” value is “− (−ve and +ve indicate the value is below and above, respectively, the no significant effect threshold defined as 30% inhibition at 10 μg/mL at the time point indicated)”. The “MTT Assay Cell viability … 24 h” value in the series on d-U937 cells was “− (−ve and +ve indicate the value is below and above, respectively, the no significant effect threshold defined as 30% inhibition at 10 μg/mL at the time point indicated)”.
